In patent US20230278972A1, “SUBSTITUTED HALOALKYL SULFONANILIDE HERBICIDES” (FMC Corporation, priority 2020, published 2023):

Key:
Assay type in all cases: in vivo
[1] = tested on: Oat, Wild (wild oat, Avena fatua); experiment: Test A1 preemergence, Oat, Wild
Outline: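 Pre: seeds in loam/sand blend, directed soil spray. Post: potted plants, same soil, 2–10 cm, 1–2 leaf stage. Chemicals in non-phytotoxic solvent + surfactant for both.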

[2] = tested on: blackgrass (Alopecurus myosuroides); experiment: Test A1 postemergence, blackgrass; conditions: Postemergence, 0 to 100 scale (0 no effect, 100 complete control)
Outline: (§1)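 Seeds were first planted into a blend of loam soil and sand and given a preemergence directed soil spray. In parallel, pots of the same soil were sown for postemergence application once plants reached 2 to 10 cm and the one- to two-leaf stage. Both used surfactant-containing non-phytotoxic solvent formulations.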

[3] = tested on: goosegrass (Eleusine indica); experiment: Test A1 postemergence, goosegrass; conditions: Postemergence
Outline: as §1

[4] = tested on: kochia (Bassia scoparia); experiment: Test A1 postemergence, kochia; conditions: Postemergence
Outline: as §1

[5] = tested on: Oat, Wild (wild oat, Avena fatua); experiment: Test A1 postemergence, Oat, Wild; conditions: Postemergence
Outline: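 Both timings started from seed in a loam-sand blend. Preemergence pots got a directed soil application immediately; postemergence pots were sprayed when seedlings had one or two leaves and stood 2–10 cm. Each compound was prepared in a non-phytotoxic solvent plus surfactant.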

[6] = tested on: Ryegrass, Italian (Italian ryegrass, Lolium multiflorum); experiment: Test A1 postemergence, Ryegrass, Italian; conditions: Postemergence
Outline: as §1

[7] = tested on: wheat (Triticum aestivum); experiment: Test A1 postemergence, wheat; conditions: Postemergence
Outline: as §1

[8] = tested on: barnyardgrass (Echinochloa crus-galli); experiment: Test B1 flooded paddy test, barnyardgrass; conditions: 250 g ai/ha, Flood, applied to paddy water, 2-leaf stage, visually evaluated after 10 to 14 days
Excerpt: A dash (-) response means no test result.

[9] = 31 g ai/ha, 0 to 100 scale (0 no effect, 100 complete control)
[10] = 125 g ai/ha, 0 to 100 scale, 0 no effect, 100 complete control
[11] = 31 g ai/ha, 0 to 100 scale (0 no effect, 100 complete control), 10 days

Structure (SMILES)	Plant response rating, Oat, Wild [1, 9]	Plant response rating, Oat, Wild [1, 10]	Plant response rating, Blackgrass ([2]; 31 g ai/ha, 10 days)	Plant response rating, Blackgrass ([2]; 125 g ai/ha)	Plant response rating, Goosegrass [3, 11]	Plant response rating, Goosegrass ([3]; 125 g ai/ha, 0 to 100 scale)	Plant response rating, Kochia [4, 11]	Plant response rating, Kochia ([4]; 125 g ai/ha, 0 to 100 scale)	Plant response rating, Oat, Wild [5, 11]	Plant response rating, Oat, Wild ([5]; 125 g ai/ha, 0 to 100 scale)	Plant response rating, Ryegrass, Italian [6, 11]	Plant response rating, Ryegrass, Italian ([6]; 125 g ai/ha, 0 to 100 scale)	Plant response rating, Wheat [7, 11]	Plant response rating, Wheat ([7]; 125 g ai/ha, 0 to 100 scale)	Plant response rating, Barnyardgrass (0 to 100 scale, 0 is no effect, 100 is complete control) [8]
CCC1ON=C(c2cc(N(C(=O)OCC(C)C)S(=O)(=O)C(F)(F)F)c(C)cc2C)C1CC (stereo not drawn) [Compound 348]	0	10	0	90	0	30	20	70	0	20	0	40	0	60	95
Cc1cc(C)c(C2=NOC3OCCC23)cc1NS(=O)(=O)C(F)(F)F (stereo not drawn) [Compound 349]	10	50	40	70	90	90	70	80	0	30	60	90	30	70	90
Cc1cc(C)c(N(COC(=O)C(C)(C)C)S(=O)(=O)C(F)(F)F)cc1C(=O)N1CCC(F)(F)CC1 [Compound 350]	0	10	0	0	10	80	0	60	0	0	30	30	0	10	90
CCOC(=O)N(c1cc(C(=O)N2CCC(F)(F)CC2)c(C)cc1C)S(=O)(=O)C(F)(F)F [Compound 351]	10	30	0	80	40	90	10	30	0	10	20	50	0	60	90
Cc1cc(C)c(N(COC(=O)C(C)(C)C)S(=O)(=O)C(F)(F)F)cc1C1=NOC2OCCC12 (stereo not drawn) [Compound 352]	0	20	0	20	80	90	50	70	0	20	0	90	0	50	90
Cc1cc(C)c(N(COC(=O)C(C)(C)C)S(=O)(=O)C(F)(F)F)cc1C(=O)N1CCC(C)CC1 [Compound 353]	0	0	0	0	0	30	10	50	0	10	0	0	20	50	90
CCOC(=O)N(c1cc(C(=O)N2CCC(C)CC2)c(C)cc1C)S(=O)(=O)C(F)(F)F [Compound 354]	0	0	0	0	0	100	40	50	0	10	0	40	20	40	90
Cc1cc(C2CC2)c(C2=NOC3CCCC23)cc1N(COC(=O)C(C)(C)C)S(=O)(=O)C(F)(F)F (stereo not drawn) [Compound 355]	0	0	0	0	0	70	0	50	0	10	30	40	20	50	60
Cc1c(NS(=O)(=O)C(F)(F)F)cc(C(=O)N2CCC(Cl)CC2)c(C)c1C [Compound 356]	0	20	0	0	0	70	10	50	0	10	20	30	0	30	45
Cc1c(NS(=O)(=O)C(F)(F)F)cc(C(=O)N2CCC(F)(F)CC2)c(C)c1C [Compound 357]	0	0	0	0	0	70	0	30	0	0	20	20	0	0	45
Cc1c(NS(=O)(=O)C(F)(F)F)cc(C(=O)N2CCC(F)CC2)c(C)c1C [Compound 358]	0	10	0	0	0	80	0	70	0	0	20	20	0	0	50
